Experimental data from PubChem BioAssay (NCI).
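A five-concentration, 48-hour dose response in 96-well plates underlies each endpoint, interpolated linearly between surrounding concentrations. TGI: concentration producing complete growth inhibition.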

Assays:
Experiment in all cases: inhibition of tumour cell growth, NCI panel, 48 h
786-0 renal = system: 786-0 renal
A498 renal = system: A498 renal
A549 NSCLC = system: A549 NSCLC
ACHN renal = system: ACHN renal
BT-549 breast = system: BT-549 breast
COLO 205 colon = system: COLO 205 colon
DU-145 prostate = system: DU-145 prostate
EKVX NSCLC = system: EKVX NSCLC
HCC-2998 colon = system: HCC-2998 colon
HCT-116 colon = system: HCT-116 colon
HCT-15 colon = system: HCT-15 colon
HL-60(TB) leukemia = system: HL-60(TB) leukemia
HOP-92 NSCLC = system: HOP-92 NSCLC
HS 578T breast = system: HS 578T breast
HT29 colon = system: HT29 colon
IGROV1 ovarian = system: IGROV1 ovarian
K-562 leukemia = system: K-562 leukemia
KM12 colon = system: KM12 colon
LOX IMVI melanoma = system: LOX IMVI melanoma
M14 melanoma = system: M14 melanoma
MCF7 breast = system: MCF7 breast
MDA-MB-231 breast = system: MDA-MB-231 breast
MDA-MB-435 = system: MDA-MB-435
MDA-N = system: MDA-N
MOLT-4 leukemia = system: MOLT-4 leukemia
NCI-H23 lung = system: NCI-H23 lung
NCI-H522 lung = system: NCI-H522 lung
NCI/ADR-RES ovarian = system: NCI/ADR-RES ovarian
OVCAR-3 ovarian = system: OVCAR-3 ovarian
OVCAR-4 ovarian = system: OVCAR-4 ovarian
OVCAR-5 ovarian = system: OVCAR-5 ovarian
OVCAR-8 ovarian = system: OVCAR-8 ovarian
PC-3 prostate = system: PC-3 prostate
RPMI-8226 leukemia = system: RPMI-8226 leukemia
SF-268 CNS = system: SF-268 CNS
SF-295 CNS = system: SF-295 CNS
SF-539 CNS = system: SF-539 CNS
SK-MEL-2 melanoma = system: SK-MEL-2 melanoma
SK-MEL-28 melanoma = system: SK-MEL-28 melanoma
SK-MEL-5 melanoma = system: SK-MEL-5 melanoma
SK-OV-3 ovarian = system: SK-OV-3 ovarian
SN12C renal = system: SN12C renal
SNB-19 CNS = system: SNB-19 CNS
SNB-75 CNS = system: SNB-75 CNS
SW-620 colon = system: SW-620 colon
T-47D breast = system: T-47D breast
TK-10 renal = system: TK-10 renal
U251 CNS = system: U251 CNS
UACC-257 melanoma = system: UACC-257 melanoma
UACC-62 melanoma = system: UACC-62 melanoma
UO-31 renal = system: UO-31 renal
CAKI-1 renal = system: CAKI-1 renal
CCRF-CEM leukemia = system: CCRF-CEM leukemia
HOP-62 NSCLC = system: HOP-62 NSCLC
NCI-H226 lung = system: NCI-H226 lung
NCI-H460 lung = system: NCI-H460 lung
RXF 393 renal = system: RXF 393 renal
SR leukemia = system: SR leukemia

## Cc1ccc2c(sc(-c3ccc4c(c3)sc(-c3ccc5c(c3)sc(-c3ccc(N(C)C)cc3)[n+]5C)[n+]4C)[n+]2C)c1S(=O)(=O)O (tested in a mixture with another compound)
786-0 renal
  TGI: > 100 µM
A498 renal
  TGI: > 100 µM
A549 NSCLC
  TGI: > 100 µM
ACHN renal
  TGI: > 100 µM
BT-549 breast
  TGI: > 100 µM
COLO 205 colon
  TGI: > 100 µM
DU-145 prostate
  TGI: > 100 µM
EKVX NSCLC
  TGI: > 100 µM
HCC-2998 colon
  TGI: > 100 µM
HCT-116 colon
  TGI: > 100 µM
HCT-15 colon
  TGI: > 100 µM
HL-60(TB) leukemia
  TGI: > 100 µM
HOP-92 NSCLC
  TGI: > 100 µM
HS 578T breast
  TGI: > 100 µM
HT29 colon
  TGI: > 100 µM
IGROV1 ovarian
  TGI: > 100 µM
K-562 leukemia
  TGI: > 100 µM
KM12 colon
  TGI: > 100 µM
LOX IMVI melanoma
  TGI: > 100 µM
M14 melanoma
  TGI: > 100 µM
MCF7 breast
  TGI: > 100 µM
MDA-MB-231 breast
  TGI: > 100 µM
MDA-MB-435
  TGI: > 100 µM
MDA-N
  TGI: > 100 µM
MOLT-4 leukemia
  TGI: > 100 µM
NCI-H23 lung
  TGI: > 100 µM
NCI-H522 lung
  TGI: > 100 µM
NCI/ADR-RES ovarian
  TGI: > 100 µM
OVCAR-3 ovarian
  TGI: > 100 µM
OVCAR-4 ovarian
  TGI: > 100 µM
OVCAR-5 ovarian
  TGI: > 100 µM
OVCAR-8 ovarian
  TGI: > 100 µM
PC-3 prostate
  TGI: > 100 µM
RPMI-8226 leukemia
  TGI: > 100 µM
SF-268 CNS
  TGI: > 100 µM
SF-295 CNS
  TGI: > 100 µM
SF-539 CNS
  TGI: > 100 µM
SK-MEL-2 melanoma
  TGI: > 100 µM
SK-MEL-28 melanoma
  TGI: > 100 µM
SK-MEL-5 melanoma
  TGI: > 100 µM
SK-OV-3 ovarian
  TGI: > 100 µM
SN12C renal
  TGI: > 100 µM
SNB-19 CNS
  TGI: > 100 µM
SNB-75 CNS
  TGI: > 100 µM
SW-620 colon
  TGI: > 100 µM
T-47D breast
  TGI: > 100 µM
TK-10 renal
  TGI: > 100 µM
U251 CNS
  TGI: > 100 µM
UACC-257 melanoma
  TGI: > 100 µM
UACC-62 melanoma
  TGI: > 100 µM
UO-31 renal
  TGI: > 100 µM

## Cn1c(-c2cccs2)cc(-c2cccs2)c1-c1ccco1
786-0 renal
  TGI: > 100 µM
A498 renal
  TGI: > 79.2 µM
A549 NSCLC
  TGI: > 100 µM
ACHN renal
  TGI: > 100 µM
BT-549 breast
  TGI: > 100 µM
CAKI-1 renal
  TGI: > 38.1 µM
CCRF-CEM leukemia
  TGI: > 100 µM
COLO 205 colon
  TGI: > 77.8 µM
DU-145 prostate
  TGI: > 100 µM
EKVX NSCLC
  TGI: > 100 µM
HCC-2998 colon
  TGI: > 100 µM
HCT-116 colon
  TGI: > 100 µM
HCT-15 colon
  TGI: > 100 µM
HL-60(TB) leukemia
  TGI: > 75.7 µM
HOP-62 NSCLC
  TGI: > 100 µM
HOP-92 NSCLC
  TGI: > 100 µM
HS 578T breast
  TGI: > 91.7 µM
HT29 colon
  TGI: > 100 µM
IGROV1 ovarian
  TGI: > 100 µM
K-562 leukemia
  TGI: > 100 µM
KM12 colon
  TGI: 22.9 µM
LOX IMVI melanoma
  TGI: 62.9 µM
M14 melanoma
  TGI: > 84.5 µM
MCF7 breast
  TGI: 5.41 µM
MDA-MB-231 breast
  TGI: > 100 µM
MDA-N
  TGI: > 100 µM
MOLT-4 leukemia
  TGI: > 100 µM
NCI-H226 lung
  TGI: > 100 µM
NCI-H23 lung
  TGI: > 25 µM
NCI-H460 lung
  TGI: > 100 µM
NCI-H522 lung
  TGI: 88.2 µM
NCI/ADR-RES ovarian
  TGI: > 100 µM
OVCAR-3 ovarian
  TGI: > 100 µM
OVCAR-4 ovarian
  TGI: 5.07 µM
OVCAR-5 ovarian
  TGI: > 100 µM
OVCAR-8 ovarian
  TGI: > 100 µM
PC-3 prostate
  TGI: > 100 µM
RPMI-8226 leukemia
  TGI: > 100 µM
RXF 393 renal
  TGI: > 82.7 µM
SF-268 CNS
  TGI: > 100 µM
SF-295 CNS
  TGI: > 100 µM
SF-539 CNS
  TGI: > 100 µM
SK-MEL-2 melanoma
  TGI: > 100 µM
SK-MEL-28 melanoma
  TGI: > 100 µM
SK-MEL-5 melanoma
  TGI: > 100 µM
SK-OV-3 ovarian
  TGI: > 100 µM
SN12C renal
  TGI: > 100 µM
SNB-19 CNS
  TGI: > 100 µM
SNB-75 CNS
  TGI: > 100 µM
SR leukemia
  TGI: > 100 µM
SW-620 colon
  TGI: > 100 µM
T-47D breast
  TGI: 12 µM
TK-10 renal
  TGI: > 100 µM
U251 CNS
  TGI: > 100 µM
UACC-257 melanoma
  TGI: > 100 µM
UACC-62 melanoma
  TGI: > 100 µM
UO-31 renal
  TGI: > 100 µM
